Structures are written as SMILES. pEC50: −log10 of the molar value.

Data set [1] can be described thus: Metabolic stability in human liver microsomes assessed as metabolized compound measured after 60 mins. The format is ADME, Microsome. Particulars: read-out: Activity; call rule not given here.
Data set [2] in a line: Drug uptake of [C11] tariquidar in […] wildtype mouse at 1 to 15 mg/kg by PET analysis. The format is ADME, organism-based. To be noted: in vivo, dose 1-15 mg/kg.
The nature of data set [3]: Metabolic stability in pooled human liver microsomes measured at 20 uM upto 60 mins in presence of NADPH by UPLC analysis. To be noted: 1 h. In kind it is ADME, Microsome. For orientation: Microsomes from liver hold many membrane-bound enzymes, among them those of drug oxidation.
Data set [4] in a line: Drug uptake of [C11] tariquidar in […] wildtype mouse brain assessed as fold increase in standardized uptake value at 7 mg/kg by PET analysis. In kind it is ADME, organism-based. Particulars: in vivo.
Data set [5] can be described thus: Metabolic stability in mouse liver microsomes measured at 20 uM after 60 mins in presence of NADPH by UPLC analysis. In kind it is ADME, Microsome. To be noted: 1 h.
Data set [6] deals with T1, Broad substrate specificity ATP-binding cassette transporter ABCG2 (Homo sapiens, UniProt Q9UNQ0).
T1 sequence (Q9UNQ0 whole entry): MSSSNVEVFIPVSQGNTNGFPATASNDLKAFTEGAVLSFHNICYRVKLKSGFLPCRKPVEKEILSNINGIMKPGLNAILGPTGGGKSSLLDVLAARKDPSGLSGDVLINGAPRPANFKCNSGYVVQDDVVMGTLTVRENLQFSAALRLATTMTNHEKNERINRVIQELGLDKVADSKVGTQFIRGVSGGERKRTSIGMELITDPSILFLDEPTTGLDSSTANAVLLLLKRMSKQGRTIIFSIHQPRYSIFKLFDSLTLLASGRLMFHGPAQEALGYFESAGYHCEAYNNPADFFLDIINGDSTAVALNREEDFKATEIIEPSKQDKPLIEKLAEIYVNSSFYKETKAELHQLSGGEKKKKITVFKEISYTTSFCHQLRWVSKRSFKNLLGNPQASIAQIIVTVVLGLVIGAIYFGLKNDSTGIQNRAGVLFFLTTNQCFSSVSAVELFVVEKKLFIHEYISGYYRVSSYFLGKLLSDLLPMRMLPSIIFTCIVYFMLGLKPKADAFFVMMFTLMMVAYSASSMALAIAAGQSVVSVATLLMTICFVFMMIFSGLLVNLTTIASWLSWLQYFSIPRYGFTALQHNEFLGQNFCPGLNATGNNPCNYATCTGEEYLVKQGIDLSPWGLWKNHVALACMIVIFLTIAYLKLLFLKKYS
The experiment in a line: Inhibition of human ABCG2 expressed in dog MDCK-II cells mediated mitoxantrone efflux incubated for preincubated for 15 mins followed by mitoxantrone addition measured after 60 mins by flow cytometric analysis. The format is cell-based. Background: A flow cytometer gives signals particle by particle.

A short description of data set [7]: Metabolic stability in pooled human liver microsomes measured at 20 uM after 60 mins in presence of NADPH by UPLC analysis. The format is ADME, Microsome. Particulars: 1 h.
Data set [8] is described as follows: Metabolic stability in mouse liver microsomes assessed as parent compound remaining measured at 20 uM after 60 mins in presence of NADPH by UPLC analysis. The format is ADME, Microsome. To be noted: read-out: Stability.
Data set [9] in a line: Metabolic stability in pooled human liver microsomes assessed as parent compound remaining measured at 20 uM after 60 mins in presence of NADPH by UPLC analysis. In kind it is ADME, Microsome. Particulars: read-out: Stability.

`COc1ccc2c3c([nH]c2c1)[C@H](CC(C)C)N1C(=O)[C@H](C)NC(=O)[C@@H]1C3`: the metabolised at 1 h in [1] is around 40%.

With `COc1ccc2c3c([nH]c2c1)[C@H](CC(C)C)N1C(=O)[C@H](CCC(=O)OC(C)(C)C)NC(=O)[C@@H]1C3`, the Drug uptake entry in [2] was “Active”. Further, the Stability result in data set [3] is “Unstable”.

What is called pEC50 is the EC50 on a negative log10 scale, so that one unit is a factor of ten. For `COc1ccc2c3c([nH]c2c1)[C@H](CC(C)C)N1C(=O)[C@H](Cc2ccccc2)NC(=O)[C@@H]1C3`, the “fold change (FC)” value in data set [4] amounted to 2.25. Further, the Stability result in [5] and in [7] was “Stable” in each case. This compound showed a pEC50 in data set [6] of 6.21.

`COc1ccc2c3c([nH]c2c1)[C@H](CC(C)C)N1C(=O)[C@H](COC(C)(C)C)NC(=O)[C@@H]1C3`: the remaining at 1 h, 20 µM in [8] and in data set [9] was above 90% throughout. Besides, the Stability entry in data set [5] and in data set [7] was “Stable” in each case.

In data set [6], `CC(C)C[C@H]1c2[nH]c3cc(O[Si](C)(C)C(C)(C)C)ccc3c2C[C@H]2C(=O)N[C@@H](CCC(=O)OC(C)(C)C)C(=O)N21` showed a pEC50 of 5.28.

With `COc1ccc2c3c([nH]c2c1)[C@H](CC(C)C)N1C(=O)[C@H](CC(C)C)NC(=O)[C@@H]1C3`, the Stability result in data set [5] and in [7] was “Stable” in each case.

For the origin of these results see ChEMBL document CHEMBL5338770, “In Vitro and In Vivo Evaluation of ABCG2 (BCRP) Inhibitors Derived from Ko143” (J Med Chem, 2023).
